Experimental data reported in patent publication US5552421A, “Leukotriene biosynthesis inhibitors” (Boehringer Ingelheim Pharmaceuticals, Inc., priority 1995, dated 1996).
Blank lines part the entries; values can stand above or below the molecule they belong to.

Assays:
[1] = tested on: LTB4 biosynthesis in human polymorphonuclear leukocytes (PMNs); assay: Inhibition of LTB4 biosynthesis in human polymorphonuclear leukocytes (PMNs); format: cell-based; settings: Homo sapiens, Leukocyte, values with <: see footnote d, Table 1
Description: Inhibition of LTB4, biosynthesis in human polymorphonuclear leukocytes (PMNs)
The inhibition of leukotriene biosynthesis is measured by determining whether and to what extent test compounds can inhibit LTB4 production from endogenous arachidonic acid in human peripheral blood leukocytes.
To 48-well tissue culture plates was added a solution of the test compound followed by addition of human polymorphonuclear leukocytes isolated from peripheral blood at a density of 1.5×10^6 cells/well. Culture plates were preincubated for fifteen minutes with shaking at 28° C. Cells were stimulated with calcium ionophore A23187 at a final concentration of 2.5 μM for an additional ten minutes. The reaction was terminated by the addition of an EGTA solution (10 mM final concentration)followed by centrifugation at 1500 rpm at 10° C. Supernatants were stored at -70° C. LTB4 levels were determined by RIA using a commercially available kit. Nonlinear regression analysis was used to calculate. IC50 values.
The following tables show % inhibition of LTB4 biosynthesis by compounds of the invention at test concentrations indicated, with the determined IC50 shown in μM.

[2] = tested on: leukotriene component of antigen-induced bronchoconstriction; assay: Antigen-Induced Bronchoconstriction in Guinea Pigs; format: in vivo, guinea pig (male Hartley); settings: aerosol, vs placebo treated controls
Source text: Antigen-Induced Bronchoconstriction in Guinea Pigs
This model measures the ability of a compound to block the leukotriene component of antigen-induced bronchoconstriction. Male Hartley guinea pigs are actively sensitized to ovalbumin, pretreated with mepyramine and indomethacin (to block the histamine and cyclooxygenase metabolite components respectively), and test compound (by aerosol administration). The guinea pigs are challenged with antigen (inhaled ovalbumin). Pulmonary function is measured by oscillatory mechanics as described by W. W. Wolyniec et al. (Agents and Actions 1991, 34, 1/2, 73). Results are expressed as percent inhibition of bronchoconstriction (resistance) in the test compound treated guinea pigs compared to placebo treated controls.
*Refers to amount of test compound inhaled by gunea pig. Compounds
administered by aerosolized freon/ethanol solution from metered dose

[3] = Table 9, Miscellaneous Heterocycle
[4] = Table 14, Miscellaneous Compounds

SMILES: Cc1ccc2oc(NC(CC3CCCCC3)c3ccccn3)nc2c1 (stereo not shown) [Compound 81]
- IC50 ([1]; Table 4, Pyridyl): 3.1 nM
- % Inhibition of bronchoconstriction (resistance) ([2]; 2.8 micrograms inhaled): 61%
- % Inhibition of bronchoconstriction (resistance) ([2]; 28 micrograms inhaled): 64%
- % Inhibition of bronchoconstriction (resistance) ([2]; 308 micrograms inhaled): 64%

SMILES: CC(C)c1ccc2oc(N[C@H](CNC(N)=O)Cc3ccccc3)nc2c1 [Compound 153]
- IC50 ([1]; Table 8, Miscellaneous Acyclic): < 300 nM

SMILES: CNC(=O)OC[C@H](Cc1ccccc1)Nc1nc2cc(C(C)C)ccc2o1 [Compound 154]
- IC50 ([1]; Table 8, Miscellaneous Acyclic): 63 nM

SMILES: Fc1ccc(CC(Nc2nc3cc(Cl)ccc3o2)c2ncc[nH]2)cc1 (stereo not shown) [Compound 155]
- IC50 [1, 3]: 290 nM

SMILES: CC(C)c1ccc2oc(NC(Cc3cccc(Cl)c3)c3nccs3)nc2c1 (stereo not shown) [Compound 159]
- IC50 [1, 3]: < 100 nM

SMILES: CC(C)c1ccc2oc(NC(Cc3ccccc3)c3cn[nH]c3)nc2c1 (stereo not shown) [Compound 161]
- IC50 [1, 3]: < 100 nM

SMILES: c1ccc(C(CC2CCCCC2)Nc2nc3cccnc3o2)cc1 (stereo not shown) [Compound 170]
- IC50 ([1]; Table 10, Oxazolopyridines): 21 nM

SMILES: c1ccc(C(CC2CCCCC2)Nc2nc3cccnc3s2)cc1 (stereo not shown) [Compound 172, 2-[(2-Cyclohexyl-1-phenylethyl)amino]thiazolo[5,4-b]pyridine]
- IC50 ([1]; Table 11, Thiazolopyridines): 27 nM

SMILES: c1ccc(C(CC2CCCCC2)Nc2nc3cccnc3s2)nc1 (stereo not shown) [Compound 174]
- IC50 ([1]; Table 11, Thiazolopyridines): 27 nM

SMILES: Cc1cnc2nc(NC(CC3CCCCC3)c3ccccn3)sc2c1 (stereo not shown) [Compound 184]
- IC50 ([1]; Table 11, Thiazolopyridines): 31 nM

SMILES: Cc1nc2nc(NC(CC3CCCCC3)c3ccccn3)sc2cc1Br (stereo not shown) [Compound 185]
- IC50 ([1]; Table 11, Thiazolopyridines): 6.5 nM

SMILES: Fc1ccc(CC(Nc2nc3ncc(Cl)cc3s2)c2ccccn2)cc1 (stereo not shown) [Compound 189]
- IC50 ([1]; Table 11, Thiazolopyridines): 28 nM

SMILES: Cc1cnc2nc(NC(CC3CCCCC3)c3ccccc3)sc2c1 (stereo not shown) [Compound 191]
- IC50 ([1]; Table 11, Thiazolopyridines): < 1000 nM

SMILES: Cc1cnc2nc(NC(Cc3ccc(F)cc3)c3ccccn3)sc2c1 (stereo not shown) [Compound 192]
- IC50 ([1]; Table 11, Thiazolopyridines): < 300 nM

SMILES: COC(=O)[C@H](Cc1cn(C)cn1)Nc1nc2cc(C(C)C)ccc2o1 [Compound 201]
- IC50 [1, 4]: < 1000 nM

SMILES: CC(C)c1ccc2oc(NC(Cc3cccc(Cl)c3)c3nccn3C)nc2c1 (stereo not shown) [Compound 202]
- IC50 [1, 4]: < 100 nM

Now from value to molecule, other results behind:

- IC50 ([1]; Table 3, Phenyl): 6.9 nM
SMILES: c1ccc(C(CC2CCCCC2)Nc2nc3ccccc3o2)cc1 (stereo not shown) [Compound 51, 2-(2-Cyclohexyl-1-phenyl]ethylaminobenzoxazole]
- % Inhibition of bronchoconstriction (resistance) ([2]; 274 micrograms inhaled): 86%

- IC50 ([1]; Table 3, Phenyl): 550 nM
SMILES: COc1ccc(C(CC2CCCCC2)Nc2nc3ccccc3o2)cc1 (stereo not shown) [Compound 56]
- % Inhibition of bronchoconstriction (resistance) ([2]; 95 micrograms inhaled): 43%

- IC50 ([1]; Table 8, Miscellaneous Acyclic): < 100 nM
SMILES: CC(C)c1ccc2oc(N[C@H](CNS(=O)(=O)N(C)C)Cc3ccccc3)nc2c1 [Compound 152]

- IC50 [1, 3]: 90 nM
SMILES: CC(C)c1ccc2oc(NC(Cc3ccc(F)cc3)c3ncc[nH]3)nc2c1 (stereo not shown) [Compound 156]

- IC50 [1, 3]: < 1000 nM
SMILES: Cc1nc(CC(Nc2nc3cc(C(C)C)ccc3o2)c2ncc[nH]2)cs1 (stereo not shown) [Compound 157]

- IC50 [1, 3]: < 30 nM
SMILES: CC(C)c1ccc2oc(NC(Cc3cccc(Cl)c3)c3ncc[nH]3)nc2c1 (stereo not shown) [Compound 158]

- IC50 [1, 3]: < 30 nM
SMILES: Cc1csc(C(Cc2cccc(Cl)c2)Nc2nc3cc(C(C)C)ccc3o2)n1 (stereo not shown) [Compound 160]

- IC50 ([1]; Table 10, Oxazolopyridines): 210 nM
SMILES: COC(=O)[C@H](CC1CCCCC1)Nc1nc2ncccc2o1 [Compound 162]

- IC50 ([1]; Table 10, Oxazolopyridines): 78 nM
SMILES: c1ccc(C(CC2CCCCC2)Nc2nc3ncccc3o2)cc1 (stereo not shown) [Compound 163]

- IC50 ([1]; Table 10, Oxazolopyridines): 28 nM
SMILES: Cc1ccc2oc(NC(CC3CCCCC3)c3ccccc3)nc2n1 (stereo not shown) [Compound 164]

- IC50 ([1]; Table 10, Oxazolopyridines): 26 nM
SMILES: Cc1ccc2oc(NC(CC3CCCCC3)c3ccccn3)nc2n1 (stereo not shown) [Compound 165]
- % Inhibition of bronchoconstriction (resistance) ([2]; 5.6 micrograms inhaled): 0%
- % Inhibition of bronchoconstriction (resistance) ([2]; 28 micrograms inhaled): 64%
- % Inhibition of bronchoconstriction (resistance) ([2]; 274 micrograms inhaled): 84%

- IC50 ([1]; Table 10, Oxazolopyridines): 300 nM
SMILES: Cc1ccc2oc(NC(CC3CCCCC3)c3cccnc3)nc2n1 (stereo not shown) [Compound 168]

- IC50 ([1]; Table 11, Thiazolopyridines): 170 nM
SMILES: c1cncc(C(CC2CCCCC2)Nc2nc3cccnc3s2)c1 (stereo not shown) [Compound 173]

- IC50 ([1]; Table 11, Thiazolopyridines): 21 nM
SMILES: Cc1nc2nc(NC(CC3CCCCC3)c3cccnc3)sc2cc1Br (stereo not shown) [Compound 186]

- IC50 ([1]; Table 11, Thiazolopyridines): 13 nM
SMILES: Cc1ccc2sc(NC(CC3CCCCC3)c3ccccn3)nc2n1 (stereo not shown) [Compound 187]

- IC50 ([1]; Table 11, Thiazolopyridines): 3.9 nM
SMILES: Clc1cnc2nc(NC(CC3CCCCC3)c3ccccn3)sc2c1 (stereo not shown) [Compound 188]
